Test results published in US20050281745A1, “Stable isotope based dynamic metabolic profiling of living organisms for characterization of metabolic diseases, drug testing and drug development” (priority 2002, published 2005).

System: pentose cycle, glucose activation and fatty acid synthesis pathways
Assay: stable isotope ([1,2-13C2]glucose) based dynamic metabolic profiling
Assay type: cell-based
Conditions: for cell proliferation rates / nucleic acid ribose synthesis through the non-oxidative steps of the pentose cycle: metabolic profile induced by cell transforming agents
Excerpt: The present invention comprises, for example, the use of the stable [1,2-^13C2]glucose tracer for metabolic pathway analyses in cultures of mammalian cells, bacteria, virus hosting cells, phage hosting bacteria, tissue slices, perfused organs, living animals or humans. The invention provides a dynamic and comprehensive metabolic profiling technique by using specifically labeled glucose substrate isotopes which not only turn into intermediary metabolites but also produce mass isotopomers of these metabolites which can be separated, measured and quantitated using liquid and gas chromatography separation and mass spectrometry (GC/MS), other mass spectrometric analysis or nuclear magnetic resonance (NMR) instruments.
After treatments, while incubating with the isotope labeled glucose substrate, the profiling study may begin with the separation of cell pellets, cell culture media, blood plasma/serum or body fluids. The cell culture media may then be used for lactate and glutamate analyses. Lactate is an abundant cell media component of the 3 carbon metabolite pool of the cell. It is used to determine the relative activity of pentose cycle glucose oxidation and recycling into glycolysis, as the percent of substrate flux through glycolysis, also known as the Embden-Meyerhoff-Parnas pathway. Glutamate label accumulation represents tricarboxylic acid (TCA) cycle carbon substrate flow. Nucleic acid ribose and deoxyribose are used to determine cell viability (ribose) and cell proliferation (deoxyribose).
Cell cycle progression and the frequency of cell divisions are determined by the accumulation of ^13C label into deoxyribose, while cell viability, apoptosis and necrosis are determined by the differential incorporation of ^13C into ribose and deoxyribose. The major advantage of our label system introduced herein is that we can differentiate between glucose oxidation and nonoxidative ribose/deoxyribose synthesis during nucleic acid production in disease and health as well as during drug testing. Glycogen glucose represents glycogen synthesis, which can originate from activated glucose (direct glycogen synthesis) or indirectly from pentoses after glucose oxidation in the pentose cycle. Non-essential fatty acids of the saturated and desaturated kinds indicate the rate of de novo fatty acid synthesis from glucose and the contribution of fatty acid synthase, chain elongase and desaturase to cell differentiation, hormone synthesis and drug effects.
The details of how the invention can be carried out can be better understood by reference to the figures. […] Glucose activation via hexokinase/glucokinase and the formation of fructose-1,6-bis phosphate maintain the ^13C labeled carbons in the 1st and 2nd positions. ^13C-labeled carbon positions derived from [1,2-^13C2]glucose are shown by the “13” superscript, while ^12C native-labeled carbon positions are shown by the “12” superscript. Participating enzymes are italicized in all of the figures. Thus, a single version of the invention can be carried out by creating two separate cell culture systems. The first system is a control system which includes the ^13C labeled glucose which may be [1,2-^13C2] glucose. […]

Molecule	cell proliferation rates	nucleic acid ribose synthesis through the non-oxidative steps of the pentose cycle	glucose activation and oxidative and non-oxidative ribose synthesis from glucose (metabolic profile of anticancer compounds, associated with effective tumor growth control)
CCOP(=S)(NC(C)C)Oc1ccccc1C(=O)OC(C)C (centres unmarked) [isofenphos]	increased	intense	
transforming growth factor beta [TGF-beta]	increased	intense	
Cc1ccc(NC(=O)c2ccc(CN3CCN(C)CC3)cc2)cc1Nc1nccc(-c2cccnc2)n1 [Gleevec]			inhibited
